Patent US12195424B2, “Antibiotic compounds” (The General Hospital Corporation, priority 2017, dated 2025)
≈ marks a conversion by molar mass, not a printed value. Like-named read-outs stand apart in the source and are kept apart here. Each block holds one compound with its values, some of them ahead of it.

Tests used:
[1] = tested on: S. aureus strain MW2; assay: Minimal inhibitory concentration (MIC) assay; assay type: cell-based; conditions: for antimicrobial activity: S. aureus MW2, in words; for fold decrease in antimicrobial activity (fold higher MIC) vs. parent compound CD437: relative to CD437; for MIC: growing MRSA MW2 cells
Excerpt: Bacterial strains, growth conditions and persister isolation. Methicillin-resistant S. aureus (MRSA) strain MW2 BAA-1707, the VanA-type vancomycin-resistant S. aureus strain VRS1, 11 clinical S. aureus isolates 8 clinical Enterococcus faecium isolates (including VanB-type VRE isolates, C68 and WB312, and a VanA-type VRE isolate WC196), Klebsiella pneumoniae WGLW2 (BEI Resources, Manassas, VA, USA), Acinetobacter baumannii ATCC 17978, Pseudomonas aeruginosa PA14, and Enterobacter aerogenes ATCC 13048 were used to test antimicrobial activity. S. aureus and E. faecium strains were grown in tryptic soy broth (TSB) (BD, Franklin Lakes, NJ, USA) or brain-heart infusion (BHI) broth (BD, Franklin Lakes, NJ, USA), respectively at 37° C. K. pneumoniae, A. baumannii, P aeruginosa, and E. aerogenes were grown in Luria Bertani (LB) broth (BD, Franklin Lakes, NJ, USA).
(§1) Minimal inhibitory concentration (MIC) assay. The MICs of antibiotics were determined by the standard micro-dilution method recommended by the Clinical and Laboratory Standards Institute. The assay was conducted in triplicate.

[2] = tested on: human erythrocytes; assay: Human blood hemolysis; assay type: cell-based; conditions: compared with CD437, in words
Description: Human blood hemolysis. Hemolytic activity of retinoids on human erythrocytes was evaluated using a previously described method with modifications. 10% human erythrocytes were purchased from Rockland Immunochemicals (Limerick, PA, USA). The erythrocytes were diluted to 4% with PBS, and 100 μl was added to 100 μl of two-fold serial dilutions of compounds in PBS, 0.2% DMSO (negative control), or 2% Triton-X 100 (positive control) in a 96-well plate. The plate was incubated at 37° C. for 1 h and then centrifuged at 500×g for 5 min. 100 μl of the supernatant was transferred to a fresh 96-well plate and absorbance of supernatants was measured at 540 nm. Percent hemolysis was calculated using the following equation: (A540 nm of compound treated sample−A540 nm of 0.1% DMSO treated sample)/(A540 nm of 1% Triton X-100 treated sample−A540 nm of 0.1% DMSO treated sample)×100. HC50 (concentration of compound causing 50% hemolysis) was determined using SigmaPlot 10.0 (Systat Software Inc., San Jose, CA, USA).

[3] = tested on: rat primary hepatocytes; assay: Hepatotoxicity in primary hepatocytes; assay type: cell-based; conditions: 24 h, compared with CD437, in words
Description: Cytotoxicity. Cryopreserved rat and human primary hepatocytes were purchased from the Cell Resource Core at Massachusetts General Hospital (Boston, MA, USA). The hepatocytes were cultured in a collagen sandwiched configuration in 24-well plates, as described previously. Briefly, 4×10^5 live cells were seeded in 24-well plates coated with rat tail collagen type I. Plates were incubated in a humidified 5% CO2 incubator at 37° C. for 4 h to allow cells to attach to the collagen gel. The cells were washed and then cultured in 0.5 ml standard hepatocyte culture medium consisting of pre-warmed Dulbecco's modified Eagle's medium (DMEM) media supplemented with 10% FBS, 0.5 U/ml insulin, 14 ng/ml glucagon, 20 ng/ml EGF, 7.5 μg/ml hydrocortisone and 200 U/ml penicillin-streptomycin. The cell cultures were incubated in a humidified 5% CO2 incubator at 37° C. At 24 h after seeding the cells, a top layer of collagen gel was deposited on the hepatocytes attached to the bottom collagen layer and incubated for additional 24 h. For cytotoxicity tests, HepG2, RPTEC, and NHEK were cultured at 70-80% confluence in tissue culture treated 96-well plates in a volume of 100 μl/well corresponding culture media. […] WST-1 reduction was measured at 450 nm. The percent fluorescence relative to that of the no-treatment control was calculated. […]

[4] = tested on: MRSA MW2 persisters; assay: Persister killing assay; assay type: cell-based, S. aureus; conditions: Staphylococcus aureus; MRSA MW2 persisters; read-out: MIC against MRSA persisters
Description: Persister killing assay. […] Persistency of stationary-phase S. aureus VRS1 was evaluated by treating with 100×MIC daptomycin and 100×MIC linezolid, because the strain is resistant to vancomycin, gentamicin, ciprofloxacin, and rifampicin. We prepared persister cells of the 13 S. aureus strains by growing cultures overnight to stationary phase at 37° C. at 225 rpm. The overnight cultures were washed three times with PBS and diluted to ˜5×10^7 ? CFU/ml with the same buffer. 2 ml of the persister suspension containing appropriate concentrations of antibiotics was added to the wells of a 96-well assay block (Corning Costar 3960) and incubated at 37° C., with shaking at 225 rpm. At specific times, 400 μl samples were removed and washed once with PBS to remove the antibiotic. The samples were serially diluted 10^5 fold with PBS and spot-plated onto TSA plates. After incubating the plates overnight (˜18 h) at 37° C., the colonies were counted to enumerate the number of cells. These experiments were conducted in triplicate.

[5] = tested on: Cutibacterium (Propionibacterium) acnes; assay: Growth inhibition / MIC against P. acnes; assay type: cell-based; conditions: in words (FIG. 11)
Description: as §1
More specifically, uptake of SYTOX Green by Cutibacterium (Propionibacterium) acnes cells treated with retinoids CD437 and Analog 2 increased, indicating higher permeability (FIG. 12; individual data points (n=3 biologically independent samples) and means are shown).

[6] = tested on: Cutibacterium (Propionibacterium) acnes; assay: Morphology of treated P. acnes bacteria; assay type: cell-based; conditions: in words (FIG. 13)
[7] = in words; cited from earlier work
[8] = Maximum tolerated dose; assay type: in vivo; conditions: mice, every 12 h for 3 days; Analog 2 10-80 mg/kg i.p., vancomycin 25 mg/kg i.p.; P>0.7
Description: Maximum tolerated dose. Six-week-old female CD1 ICR outbred mice (20-25 g) were obtained from Charles River Laboratories (Wilmington, MA, USA). Analog 2 was dissolved in a 1:1 solution of Kolliphor EL (Sigma-Aldrich, St Louis, MO, USA) and ethanol and then diluted 1:10 in saline to a final concentration of 4 mg/ml. Groups of mice (n=6) were treated with 10, 20, 40, 80 mg/kg Analog 2 i.p. or vancomycin (25 mg/kg) every 12 h for 3 days. Control mice were injected with 400 μl of 10% Kolliphor EL/ethanol in saline i.p. every 12 h for 3 days. Mice were closely monitored until they were euthanized at 72 h from the first infection. After euthanizing mice, blood was collected by cardiac puncture. All samples were stored at 4° C. until for analysis. Serum was analyzed for alanine aminotransferase and urea nitrogen content with commercially available kits, following the manufacturer's protocol (Pointe Scientific, Canton, MI, USA). No statistical methods were used to predetermine samples size. The experiments were not randomized, and investigators were not blinded to allocation during experiments and outcome assessment. This study and all experimental protocols were approved by the Rhode Island Hospital Institutional Animal Care and Use Committee (RIH IACUC) and conducted in accordance with the Animal Welfare Act and National Institutes of Health guidelines for animal care and use. Statistical significance among each group was analyzed by one-way ANOVA with post-hoc Tukey test using PASW Statistics 18 (SPSS Inc. Chicago, IL, USA) and GraphPad Prism 7 (GraphPad Software, La Jolla, CA, USA).

[9] = Staphylococcus aureus, read-out: MIC

Compound: NC(=O)c1ccc2cc(-c3ccc(O)c(C45CC6CC(CC(C6)C4)C5)c3)ccc2c1 [Analog 3, 6-(3-(adamantan-1-yl)-4-hydroxyphenyl)-2-naphthamide]
antimicrobial activity [1]: comparatively low

Compound: COc1ccc(-c2ccc3cc(CO)ccc3c2)cc1C12CC3CC(CC(C3)C1)C2 [Analog 6, (6-(3-(adamantan-1-yl)-4-methoxyphenyl)naphthalen-2-yl)methanol]
antimicrobial activity [1]: eliminated

Compound: O=C(O)c1ccc2cc(-c3ccc(O)c(Cc4ccccc4)c3)ccc2c1 [Analog 9, 6-(3-benzyl-4-hydroxyphenyl)-2-naphthoic acid]
fold decrease in antimicrobial activity (fold higher MIC) vs. parent compound CD437 ([1]; MRSA MW2): 2 fold
MIC [1, 9]: 2 µg/mL (≈ 5.64 µM)
hemolytic activity [2]: similar
hepatotoxicity [3]: similar
MIC [4]: 16 µg/mL (≈ 45.1 µM)

Compound: O=C(O)c1ccc2cc(-c3cc(C45CC6CC(CC(C6)C4)C5)ccc3O)ccc2c1 [Analog 10, 6-(5-(adamantan-1-yl)-2-hydroxyphenyl)-2-naphthoic acid]
fold decrease in antimicrobial activity (fold higher MIC) vs. parent compound CD437 ([1]; MRSA MW2): > 30 fold
MIC [1, 9]: 32 µg/mL (≈ 80.3 µM)

Compound: O=C(O)c1cc(O)c2cc(-c3ccc(O)c(C45CC6CC(CC(C6)C4)C5)c3)ccc2c1 [Analog 11, 6-(3-(adamantan-1-yl)-4-hydroxyphenyl)-4-hydroxy-2-naphthoic acid]
fold decrease in antimicrobial activity (fold higher MIC) vs. parent compound CD437 ([1]; MRSA MW2): 4 fold
MIC [1, 9]: 4 µg/mL (≈ 9.65 µM)

Compound: COc1ccc(-c2ccc3cc(C(=O)O)ccc3c2)cc1C12CC3CC(CC(C3)C1)C2 [adapalene]
growth inhibition [5]: not

Compound: O=C(O)/C=C/c1ccc(-c2ccc(O)c(C34CC5CC(CC(C5)C3)C4)c2)cc1 [adarotene]
excretion [7]: excreted rapidly

Compound: CN[C@H](CC(C)C)C(=O)N[C@H]1C(=O)N[C@@H](CC(N)=O)C(=O)N[C@H]2C(=O)N[C@H]3C(=O)N[C@H](C(=O)N[C@H](C(=O)O)c4cc(O)cc(O)c4-c4cc3ccc4O)[C@H](O)c3ccc(c(Cl)c3)Oc3cc2cc(c3O[C@@H]2O[C@H](CO)[C@@H](O)[C@H](O)[C@H]2O[C@H]2C[C@](C)(N)[C@H](O)[C@H](C)O2)Oc2ccc(cc2Cl)[C@H]1O [vancomycin, reference compound]
alanine aminotransferase (ALT) vs. control [8]: lack of significant differences
blood urea nitrogen (BUN) vs. control [8]: lack of significant differences

More lines, main results first:

MIC [1, 9]: 4 µg/mL (≈ 9.65 µM)
Compound: O=C(O)c1cc(O)c2cc(-c3cc(C45CC6CC(CC(C6)C4)C5)ccc3O)ccc2c1 [Analog 13, 6-(5-(adamantan-1-yl)-2-hydroxyphenyl)-4-hydroxy-2-naphthoic acid]
fold increase in antimicrobial activity vs. Analog 10 ([1]; MRSA MW2, relative to Analog 10): 8 fold

MIC [1, 9]: 16 µg/mL (≈ 37.2 µM)
Compound: O=C(O)c1cc(O)c2cc(-c3ccc(O)c(C45CC6CC(CC(C6)C4)C5)c3)cc(O)c2c1 [Analog 14, 6-(3-(adamantan-1-yl)-4-hydroxyphenyl)-4,8-dihydroxy-2-naphthoic acid]
fold decrease in antimicrobial activity vs. Analog 11 ([1]; MRSA MW2, another decrease relative to Analog 11): 4 fold

MIC [1, 9]: 8 µg/mL (≈ 18.6 µM)
Compound: O=C(O)c1cc(O)c2cc(-c3cc(C45CC6CC(CC(C6)C4)C5)ccc3O)cc(O)c2c1 [Analog 16, 6-(5-(adamantan-1-yl)-2-hydroxyphenyl)-4,8-dihydroxy-2-naphthoic acid]

MIC [1]: 1 µg/mL (≈ 2.51 µM)
Compound: O=C(O)c1ccc2cc(-c3ccc(O)c(C45CC6CC(CC(C6)C4)C5)c3)ccc2c1 [CD437, reference compound]
growth inhibition [5]: inhibit the growth
morphology of bacteria [6]: altered and elongated
